Among the data in patent US8501713B2, “Drug combinations for the treatment of duchenne muscular dystrophy” (Summit Corporation PLC, priority 2007, dated 2013) are activity and Activity values, retold here.

Some results are limits rather than exact numbers.

For the first experiment, the system named is Utrophin A promoter linked to a luciferase reporter gene. The experiment can be described thus: Luciferase reporter assay (murine H2K cells). The format is cell-based. Conditions: Mus musculus, H2K mdx. The procedure, abridged:
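Immortalized mdx mouse H2K myoblasts stably carrying a ~5 kb utrophin A promoter–luciferase construct, kept at 33° C, 10% CO2. After 24 hrs plating, compound added at 10 μM final for 48 hrs; luciferase light output read after in-situ lysis.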
(Reporter assays use an easily measured gene product as a stand-in for the process of interest.)
Take `Nc1ccc2sc(-c3ccccc3)nc2c1` [Example 251, 2-phenylbenzo[d]thiazol-5-amine]: the activity at 10 µM lay in the range of 301 to 400%.

The same experiment, now with this note: Mus musculus, H2K mdx, luciferase level relative to control; H2K/mdx/Utro A reporter cells; compound 10 μM final concentration; read-out: Activity.
Consider `O=[N+]([O-])c1ccc2oc(-c3ccc4c(c3)OCO4)nc2c1` [Example 286, 2-(benzo[d][1,3]dioxol-5-yl)-5-nitrobenzo[d]oxazole], for which the activity at 10 µM is 301 to 400%.
On the same count and under the same terms, the value for `CC(C)C(=O)Nc1ccc2oc(-c3ccc(F)cc3)nc2c1` [Example 258, N-(2-(4-fluorophenyl)benzo[d]oxazol-5-yl)isobutyramide] was 301 to 400%; that for `CCN(CC)c1ccc(-c2nc3cc(NC(=O)c4ccc(Cl)c(Cl)c4)ccc3o2)cc1` [Example 68, 3,4-dichloro-N-(2-(4-(diethylamino)phenyl)benzo[d]oxazol-5-yl)benzamide] was less than 200%.
As for `CC(C)C(=O)Nc1ccc2oc(-c3c(F)cccc3Cl)nc2c1` [Example 341, N-(2-(2-chloro-6-fluorophenyl)benzo[d]oxazol-5-yl)isobutyramide], the activity at 10 µM was less than 200%.
On the same count and under the same terms, then `C[C@H](N)C(=O)Nc1ccc2oc(-c3ccc(Cl)cc3)nc2c1` [Example 272, (S)-2-amino-N-(2-(4-chlorophenyl)benzo[d]oxazol-5-yl)propanamide], with 301 to 400%; and `O=C(CCN1CCOCC1)Nc1ccc2oc(-c3ccccc3)nc2c1` [Example 285, 3-morpholino-N-(2-phenylbenzo[d]oxazol-5-yl)propanamide], with less than 200%; and `CC(C)C(=O)Nc1ccc2sc(-c3ccc(Cl)c(Cl)c3)nc2c1` [Example 297, N-(2-(3,4-dichlorophenyl)benzo[d]thiazol-5-yl)isobutyramide], with greater than 401%.
On the same count and under the same terms, then `Cc1ccccc1-c1nc2cc(N)ccc2o1` [Example 205, 2-o-tolylbenzo[d]oxazol-5-amine], with 301 to 400%.
On the same count and under the same terms, the value for `CCC(=O)Nc1ccc2nn(-c3ccc(Cl)cc3)nc2c1` [Example 148, N-(2-(4-chlorophenyl)-2H-benzo[d][1,2,3]triazol-5-yl)propionamide] was greater than 401%; that for `NS(=O)(=O)c1ccc2oc(-c3ccc(Cl)cc3)nc2c1` [Example 325, 2-(4-chlorophenyl)benzo[d]oxazole-5-sulfonamide] was greater than 401%.
In the case of `Nc1ccc2sc(-c3cccc(Cl)c3Cl)nc2c1` [Example 307, 2-(2,3-dichlorophenyl)benzo[d]thiazol-5-amine], the activity at 10 µM was in the range of 301 to 400%.
Take `Cc1ccc(-c2nc3cc(Br)cnc3o2)cc1` [Example 212, 6-bromo-2-p-tolyloxazolo[5,4-b]pyridine]: the activity at 10 µM was in the range of 201 to 300%.
Same read-out and setting: then `Cc1ccc(-c2nc3cc(NC(=O)C(C)C)ccc3[nH]2)cc1` [Example 175, N-(2-p-tolyl-1H-benzo[d]imidazol-5-yl)isobutyramide], with less than 200%.
Regarding `CC(C)C(=O)Nc1ccc2oc(-c3ccc(Cl)cc3)cc2c1` [Example 414, 2-(4′-chlorophenyl)-5-isobutyramido-benzofuran], the activity at 10 µM was less than 200%.
Same read-out and setting: the value for `CC(=O)Nc1ccc(-c2nc3cc(NC(C)=O)ccc3o2)cc1` [Example 365, N-(4-(5-acetamidobenzo[d]oxazol-2-yl)phenyl)acetamide] was less than 200%; that for `CCC(=O)Nc1ccc2oc(-c3ccccc3)nc2c1` [Example 9, N-(2-phenylbenzo[d]oxazol-5-yl)propionamide] was 201 to 300%.
Still for that read-out and setting: the value for `O=C(Nc1ccc2oc(-c3ccccc3)nc2c1)c1ccc(C(F)(F)F)cc1` [Example 29, N-(2-phenylbenzo[d]oxazol-5-yl)-4-(trifluoromethyl)benzamide] was less than 200%; that for `CC(C)(C)c1ccc2oc(-c3ccc(Cl)cc3)nc2c1` [Example 321, 5-tert-butyl-2-(4-chlorophenyl)benzo[d]oxazole] was greater than 401%; that for `Nc1ccc(-c2ccc3oc(-c4ccc(Cl)cc4)nc3c2)cn1` [Example 338, 5-(2-(4-chlorophenyl)benzo[d]oxazol-5-yl)pyridin-2-amine] was greater than 401%.
Still for that read-out and setting: the value for `CCCC(=O)Nc1ccc2sc(-c3ccc(C)cc3)nc2c1` [Example 216, N-(2-p-tolylbenzo[d]thiazol-5-yl)butyramide] was greater than 401%; that for `CC(C)C(=O)Nc1ccc2oc(-c3ccccc3F)nc2c1` [Example 243, N-(2-(2-fluorophenyl)benzo[d]oxazol-5-yl)isobutyramide] was 301 to 400%; that for `Nc1ccc2oc(SCc3ccc(Cl)cc3)nc2c1` [Example 380, 2-(4-chlorobenzylthio)benzo[d]oxazol-5-amine] was less than 200%.
Turning to `COc1cccc(-c2ccc3oc(-c4ccc(Cl)cc4)nc3c2)n1` [Example 327, 2-(4-chlorophenyl)-5-(6-methoxypyridin-2-yl)benzo[d]oxazole], the activity at 10 µM is less than 200%.
Still for that read-out and setting: then `Cc1ccc(-c2nc3c(NC(=O)C(C)C)cccc3o2)cc1` [Example 236, N-(2-p-tolylbenzo[d]oxazol-4-yl)isobutyramide], with less than 200%; and `CC(C)CNc1ccc2oc(-c3ccccc3)nc2c1` [Example 168, N-isobutyl-2-phenylbenzo[d]oxazol-5-amine], with greater than 401%.
On the same count and under the same terms, the value for `Cc1ccc(-c2nc3cc(C)c(C)cc3o2)cc1` [Example 215, 5,6-dimethyl-2-p-tolylbenzo[d]oxazole] was greater than 401%; that for `CC(C)C(=O)Nc1ccc2oc(-c3ccccc3)cc2c1` [Example 396, N-(2-phenylbenzofuran-5-yl)isobutyramide] was greater than 401%.
Same read-out and setting: then `O=[N+]([O-])c1ccc2nc(-c3ccc(Cl)c(Cl)c3)oc2c1` [Example 324, 2-(3,4-dichlorophenyl)-6-nitrobenzo[d]oxazole], with 201 to 300%.
Regarding `O=C(Nc1ccc2oc(-c3cccnc3)nc2c1)c1cc(Cl)cc(Cl)c1` [Example 47, 3,5-dichloro-N-(2-(pyridin-3-yl)benzo[d]oxazol-5-yl)benzamide], the activity at 10 µM is less than 200%.

Still in this experiment, the particulars now being: luciferase level relative to control; H2K/mdx/Utro A reporter cells; compound 10 μM final concentration.
With `CC(=O)c1ccc2oc(-c3ccc(Cl)c(Cl)c3)nc2c1` [Example 453, 1-(2′-(3″,4″-Dichlorophenyl)benzo[d]oxazol-5′-yl)ethanone], the Activity entry was “++++ (Above 401% relative to control)”.

Staying with this experiment, now noted: luciferase reporter assay in murine H2K cells; classified relative to control.
In the case of `Cc1ccc(-c2nc3cc(N)ccc3o2)cc1Cl` [Example 526], the Activity result was “++ (Between 201% and 300% relative to control)”.
For `Cc1cc2nc(-c3cccc(NC(=O)c4ccco4)c3)oc2cc1C` [Example 623], the Activity entry is listed as “++++ (Above 401% relative to control)”.
Still for that read-out and setting: the value for `Cc1ccc(-c2nc3ccccc3s2)cc1N` [Example 479] was “++ (Between 201% and 300% relative to control)”; that for `c1ccc(-c2ccc(-c3nc4ccccc4[nH]3)cc2)cc1` [Example 558] was “+ (Up to 200% relative to control)”.
The same measure, in the same setting: then `Nc1ccc2oc(-c3cccc(Cl)c3)nc2c1` [Example 489], with “++ (Between 201% and 300% relative to control)”.
The same measure, in the same setting: then `Cc1ccc2[nH]c(-c3ccccc3N)nc2c1` [Example 554], with “+++ (Between 301% and 400% relative to control)”.
In the case of `O=C(Nc1ccc(-c2nc3ccccc3s2)cc1)C1CC1` [Example 661], the Activity result is “+++ (Between 301% and 400% relative to control)”.
`O=C(Nc1ccc(-c2nc3ccccc3[nH]2)cc1)c1ccco1` [Example 562]: the Activity entry was “+++ (Between 301% and 400% relative to control)”.
Same read-out and setting: then `Clc1ccc(-c2nc3ccccc3s2)c(Cl)c1` [Example 595], with “++ (Between 201% and 300% relative to control)”; and `CCc1ccc2oc(-c3cccc(NC(C)=O)c3)nc2c1` [Example 642], with “+++ (Between 301% and 400% relative to control)”; and `Cn1c(-c2ccc(Cl)cc2)nc2ccccc21` [Example 541], with “++ (Between 201% and 300% relative to control)”.
Same read-out and setting: then `Cl.Cl.Nc1ccc2[nH]c(-c3ccco3)nc2c1` [Example 510], with “+ (Up to 200% relative to control)”.
As to `Cc1cc(-c2nc3cc(Cl)ccc3o2)ccc1[N+](=O)[O-]` [Example 539], the Activity entry is “+ (Up to 200% relative to control)”.
On the same count and under the same terms, then `Cc1ccc(-c2nc3ccccc3[nH]2)cc1` [Example 613], with “+++ (Between 301% and 400% relative to control)”; and `c1ccc(OCc2nc3ccccc3s2)cc1` [Example 633], with “+++ (Between 301% and 400% relative to control)”.
The same measure, in the same setting: the value for `Cc1ccc2nc(NC(=O)c3ccco3)sc2c1` [Example 652] was “+++ (Between 301% and 400% relative to control)”; that for `O=C(Nc1ccc(-c2nc3ccccc3[nH]2)cc1)c1cccs1` [Example 585] was “++++ (Above 401% relative to control)”.
On the same count and under the same terms, then `Nc1ccc2nc(-c3cccc(Cl)c3)oc2c1` [Example 598], with “+++ (Between 301% and 400% relative to control)”; and `CCc1ccc2oc(-c3ccc(N)cc3)nc2c1` [Example 553], with “++++ (Above 401% relative to control)”; and `CCOc1ccc(-c2nc3cc(N)ccc3o2)cc1` [Example 549], with “+ (Up to 200% relative to control)”.
For `Oc1cccc(-c2nc3ccccc3s2)c1` [Example 594], the Activity result was “++++ (Above 401% relative to control)”.
Same read-out and setting: then `Cn1c(-c2ccc([N+](=O)[O-])cc2)nc2ccccc21` [Example 472], with “+ (Up to 200% relative to control)”; and `Nc1ccc2nc(-c3ccc(-c4nc5ccc(N)cc5[nH]4)cc3)[nH]c2c1` [Example 476], with “+ (Up to 200% relative to control)”.
Still for that read-out and setting: then `O=[N+]([O-])c1ccc2oc(-c3ccccc3)nc2c1` [Example 492], with “++ (Between 201% and 300% relative to control)”.
Still for that read-out and setting: then `Fc1ccccc1-c1nc2ccccc2[nH]1` [Example 507], with “++ (Between 201% and 300% relative to control)”.
